One experiment has as its target T1, human JAK1 (Homo sapiens, UniProt P23458).
T1 construct: The kinase domain of human JAK1 was amplified; GST (N); made in house; host or cells: Sf9 insect cells (baculovirus)
The experiment in a line: Alphascreen tyrosine kinase enzyme assay, JAK1 kinase domain. In kind it is biochemical. Conditions: read-out: JAK1 IC50_nM.

Another experiment has as its target T2, human JAK3 (Homo sapiens, UniProt P52333).
T2 construct: The kinase domain of human JAK3 was amplified; GST (N); made in house; host or cells: Sf9 insect cells (baculovirus)
The experiment in a line: Alphascreen tyrosine kinase enzyme assay, JAK3 kinase domain. The following applies: read-out: JAK3 IC50_nM. It counts as biochemical. The procedure, abridged:
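GST-affinity-purified human JAK3 kinase domain (baculovirus/Sf9) was pre-incubated 20 min with compound ([…]) in HEPES pH 7.5 buffer with MgCl2, vanadate and Tween 20. Biotinylated peptide substrate ([…]) and ATP were then added; phosphotyrosine was detected by AlphaScreen PY100 acceptor and streptavidin donor beads after 2–3 h.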

Another experiment deals with BaF3 wild-type cells. In words: Cellular screening, BaF3 wild-type cells, Alamar Blue. In kind it is cell-based. Conditions: Mus musculus, 40 hr, read-out: BAF3wt IC50_nM. In short, it runs like this:
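Compounds, screened from dilution plates at 20 μM, were added as 10× final stocks to cells grown in DMEM/10% FCS/10% WEHI 3B conditioned medium. Cells were seeded at 1.1× final (50,000–200,000 cells/mL) and incubated 40 hr at 37° C, 5% CO2. Viability was read at 544 nm after a further 4–6 hours with Alamar Blue.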

The target of the next experiment is T3, BTK(h) (Homo sapiens, UniProt Q06187).
T3 construct: purchased Upstate Biotechnology (Dundee, UK), KinaseProfiler service
T3 sequence (Q06187 whole entry): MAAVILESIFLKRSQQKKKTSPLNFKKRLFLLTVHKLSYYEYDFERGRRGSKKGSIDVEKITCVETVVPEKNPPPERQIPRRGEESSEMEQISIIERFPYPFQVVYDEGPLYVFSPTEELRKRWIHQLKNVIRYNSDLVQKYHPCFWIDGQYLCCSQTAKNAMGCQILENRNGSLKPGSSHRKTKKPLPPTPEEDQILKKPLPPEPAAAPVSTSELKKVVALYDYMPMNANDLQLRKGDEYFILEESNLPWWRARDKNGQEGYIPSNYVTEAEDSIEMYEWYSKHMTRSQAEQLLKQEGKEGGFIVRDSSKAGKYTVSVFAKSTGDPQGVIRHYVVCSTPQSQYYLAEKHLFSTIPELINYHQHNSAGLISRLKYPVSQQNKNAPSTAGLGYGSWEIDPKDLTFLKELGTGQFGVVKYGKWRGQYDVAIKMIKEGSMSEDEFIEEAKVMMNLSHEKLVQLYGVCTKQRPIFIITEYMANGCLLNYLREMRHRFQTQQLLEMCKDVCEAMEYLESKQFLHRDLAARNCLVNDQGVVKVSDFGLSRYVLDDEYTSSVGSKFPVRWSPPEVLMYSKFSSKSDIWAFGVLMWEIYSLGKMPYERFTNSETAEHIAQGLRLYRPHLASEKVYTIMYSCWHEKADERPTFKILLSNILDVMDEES
In words: Upstate KinaseProfiler enzyme assay, BTK. In kind it is biochemical. The following applies: 500 nM compound; read-out: Percent inhibition at 500 nM BTK(h). As for the experimental part: (§1) Further enzyme assays were conducted at Upstate Biotechnology (Dundee, UK) in the KinaseProfiler™ Assay system.
(§2) The general protocol is as follows. All kinases are pre-diluted to a 10× working concentration prior to addition into the assay. The composition of the dilution buffer for the kinases is 20 mM MOPS pH 7.0, 1 mM EDTA, 0.1% β-mercaptoethanol, 0.01% Brij-35, 5% glycerol, 1 mg/ml BSA. All substrates are dissolved and diluted to working stocks in de-ionised water.

In another experiment the test system is CTLL2. The experiment in a line: Cellular screening, CTLL2 cells, Alamar Blue. It counts as cell-based. Conditions: Mus musculus, CTLL-2, read-out: CTLL2 IC50_nM. The procedure, abridged:
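Viability is read with Alamar Blue at 544 nm, the dye added for the final 4-6 hours. Compounds were incubated for 40 hr with CTLL2 cells taken from late-log-phase culture, at 37° C in 5% CO2.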

A further experiment has as its target T4, KDR(h) (Homo sapiens, UniProt P35968).
T4 construct: purchased Upstate Biotechnology (Dundee, UK), KinaseProfiler service
In words: Upstate KinaseProfiler enzyme assay, KDR. It counts as biochemical. Conditions: 500 nM compound; read-out: Percent inhibition at 500 nM KDR(h). On the procedure:
as §1, §2

The next experiment concerns the target T5, Flt 1(h) (Homo sapiens, UniProt P17948).
T5 construct: purchased Upstate Biotechnology (Dundee, UK), KinaseProfiler service
The experiment in a line: Upstate KinaseProfiler enzyme assay, Flt 1. It counts as biochemical. The following applies: 500 nM compound; read-out: Percent inhibition at 500 nM Flt 1(h). On the procedure:
as §1, §2

The target in another experiment is T6, Flt 4(h) (Homo sapiens, UniProt P35916).
T6 construct: purchased Upstate Biotechnology (Dundee, UK), KinaseProfiler service
The experiment in a line: Upstate KinaseProfiler enzyme assay, Flt 4. Conditions: 500 nM compound; read-out: Percent inhibition at 500 nM Flt 4(h). It counts as biochemical. As for the experimental part: as §1, §2

T4 sequence (P35968 20-1356): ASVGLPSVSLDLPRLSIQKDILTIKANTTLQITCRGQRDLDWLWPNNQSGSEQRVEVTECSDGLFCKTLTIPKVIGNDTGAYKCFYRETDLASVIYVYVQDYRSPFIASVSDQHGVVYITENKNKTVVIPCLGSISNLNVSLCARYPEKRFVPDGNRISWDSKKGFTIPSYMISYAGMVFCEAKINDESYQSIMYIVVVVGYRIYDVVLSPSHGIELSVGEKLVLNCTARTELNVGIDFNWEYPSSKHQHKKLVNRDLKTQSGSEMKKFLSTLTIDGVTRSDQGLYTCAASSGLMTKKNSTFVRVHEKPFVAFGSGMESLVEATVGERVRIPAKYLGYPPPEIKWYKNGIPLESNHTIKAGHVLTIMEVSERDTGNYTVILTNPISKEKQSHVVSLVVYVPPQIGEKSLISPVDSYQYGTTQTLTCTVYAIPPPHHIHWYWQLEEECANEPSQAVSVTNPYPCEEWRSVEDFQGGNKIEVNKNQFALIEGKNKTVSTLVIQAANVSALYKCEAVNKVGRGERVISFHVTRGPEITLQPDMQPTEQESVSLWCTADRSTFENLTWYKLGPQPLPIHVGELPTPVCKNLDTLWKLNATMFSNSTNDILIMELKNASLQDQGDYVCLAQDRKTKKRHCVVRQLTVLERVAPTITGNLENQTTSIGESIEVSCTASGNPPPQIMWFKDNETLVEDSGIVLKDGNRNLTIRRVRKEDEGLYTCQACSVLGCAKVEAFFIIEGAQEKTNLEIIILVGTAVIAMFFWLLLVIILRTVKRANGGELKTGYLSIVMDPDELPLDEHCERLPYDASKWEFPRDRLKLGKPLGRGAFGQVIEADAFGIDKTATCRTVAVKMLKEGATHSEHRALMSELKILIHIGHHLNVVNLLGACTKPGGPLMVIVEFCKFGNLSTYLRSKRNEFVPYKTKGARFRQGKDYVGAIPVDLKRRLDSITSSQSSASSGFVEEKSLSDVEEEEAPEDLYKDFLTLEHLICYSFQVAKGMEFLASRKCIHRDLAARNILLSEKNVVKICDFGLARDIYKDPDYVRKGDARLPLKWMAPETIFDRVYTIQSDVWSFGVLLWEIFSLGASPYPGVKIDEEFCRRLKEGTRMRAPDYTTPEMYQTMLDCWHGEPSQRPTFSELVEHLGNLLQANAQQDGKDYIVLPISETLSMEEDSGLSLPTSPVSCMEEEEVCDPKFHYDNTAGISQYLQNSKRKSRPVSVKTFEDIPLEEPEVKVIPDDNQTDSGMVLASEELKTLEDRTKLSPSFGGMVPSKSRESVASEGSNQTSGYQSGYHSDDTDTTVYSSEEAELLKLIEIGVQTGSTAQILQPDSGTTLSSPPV
T1 sequence (P23458 875-1153 limits assumed): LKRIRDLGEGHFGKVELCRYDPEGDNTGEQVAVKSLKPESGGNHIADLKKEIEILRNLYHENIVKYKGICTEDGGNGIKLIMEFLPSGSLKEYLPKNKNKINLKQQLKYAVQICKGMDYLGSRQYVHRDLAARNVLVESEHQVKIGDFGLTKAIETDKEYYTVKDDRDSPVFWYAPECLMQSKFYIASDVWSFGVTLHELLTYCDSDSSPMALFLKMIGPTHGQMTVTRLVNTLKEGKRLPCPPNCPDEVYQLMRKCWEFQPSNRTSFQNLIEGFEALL
T2 sequence (P52333 822-1111 limits assumed): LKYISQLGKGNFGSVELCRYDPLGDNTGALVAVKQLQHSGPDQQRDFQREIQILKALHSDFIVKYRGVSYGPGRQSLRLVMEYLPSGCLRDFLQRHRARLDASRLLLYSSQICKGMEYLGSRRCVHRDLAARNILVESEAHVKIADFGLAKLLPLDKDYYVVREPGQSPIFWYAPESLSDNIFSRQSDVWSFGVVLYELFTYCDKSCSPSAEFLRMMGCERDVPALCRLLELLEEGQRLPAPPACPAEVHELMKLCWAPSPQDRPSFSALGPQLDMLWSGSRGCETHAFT
T5 sequence (P17948 27-1338): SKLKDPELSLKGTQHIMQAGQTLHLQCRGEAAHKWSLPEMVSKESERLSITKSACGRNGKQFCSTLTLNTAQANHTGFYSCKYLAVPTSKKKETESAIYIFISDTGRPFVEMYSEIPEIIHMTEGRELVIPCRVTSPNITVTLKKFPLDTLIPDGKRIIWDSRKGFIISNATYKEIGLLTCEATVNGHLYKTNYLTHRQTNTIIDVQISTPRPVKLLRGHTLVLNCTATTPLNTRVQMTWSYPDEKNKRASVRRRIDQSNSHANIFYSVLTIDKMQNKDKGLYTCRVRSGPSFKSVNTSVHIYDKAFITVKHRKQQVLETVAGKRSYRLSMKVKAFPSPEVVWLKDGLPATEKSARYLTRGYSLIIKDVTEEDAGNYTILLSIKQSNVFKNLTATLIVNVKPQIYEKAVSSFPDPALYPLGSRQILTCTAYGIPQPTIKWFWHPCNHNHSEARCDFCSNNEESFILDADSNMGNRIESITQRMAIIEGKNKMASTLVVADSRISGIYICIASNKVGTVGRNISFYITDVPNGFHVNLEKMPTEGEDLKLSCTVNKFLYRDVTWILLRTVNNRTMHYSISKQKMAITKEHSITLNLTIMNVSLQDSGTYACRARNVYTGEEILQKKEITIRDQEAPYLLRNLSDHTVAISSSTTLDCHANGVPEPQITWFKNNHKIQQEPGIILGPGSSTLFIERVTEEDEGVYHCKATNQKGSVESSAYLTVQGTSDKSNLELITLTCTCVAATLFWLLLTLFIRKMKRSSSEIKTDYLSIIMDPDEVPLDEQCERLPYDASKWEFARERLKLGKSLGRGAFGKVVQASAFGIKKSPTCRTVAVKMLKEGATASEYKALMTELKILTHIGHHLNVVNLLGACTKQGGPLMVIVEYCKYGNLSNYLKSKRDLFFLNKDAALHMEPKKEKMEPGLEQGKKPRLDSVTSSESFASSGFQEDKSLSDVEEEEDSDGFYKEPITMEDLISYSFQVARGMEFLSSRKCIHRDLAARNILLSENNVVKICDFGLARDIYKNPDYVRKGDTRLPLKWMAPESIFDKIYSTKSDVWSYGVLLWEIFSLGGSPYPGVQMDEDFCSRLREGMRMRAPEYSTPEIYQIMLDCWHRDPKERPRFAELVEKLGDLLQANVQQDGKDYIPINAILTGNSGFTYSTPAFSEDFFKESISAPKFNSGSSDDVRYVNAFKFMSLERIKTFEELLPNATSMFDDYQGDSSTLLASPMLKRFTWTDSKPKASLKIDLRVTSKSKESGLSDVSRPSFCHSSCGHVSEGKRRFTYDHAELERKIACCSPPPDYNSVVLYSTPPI

For the compound `C=CC(=O)Nc1cccc(Sc2ccnc(Nc3ccc(N4CCOCC4)cc3)n2)c1` [Compound 23, N-(3-(2-(4-morpholinophenylamino)pyrimidin-4-ylthio)phenyl)acrylamide], the IC50 at human JAK1 was > 1000 nM; at human JAK3, < 100 nM; in the experiment on BaF3 wild-type cells it was < 20000 nM; with CTLL2 it was < 1000 nM. Moreover, on BTK(h), the inhibition at 0.5 µM stood at 84%.
`C=CC(=O)Nc1ccc(Sc2ccnc(Nc3ccc(N4CCOCC4)cc3)n2)cc1` [Compound 25, N-(4-(2-(4-morpholinophenylamino)pyrimidin-4-ylthio)phenyl)acrylamide]: the IC50 on human JAK1 is > 1000 nM; at human JAK3, < 100 nM; in the experiment with BaF3 wild-type cells, > 20000 nM; with CTLL2 it was < 1000 nM. Further, the inhibition at 0.5 µM on BTK(h) worked out at 83%.
In the case of `C=CC(=O)Nc1cccc(Nc2nccc(Sc3ccc(OC)cc3)n2)c1` [Compound 42, N-(3-(4-(4-methoxyphenylthio)pyrimidin-2-ylao)phenyl)acrylamide], the IC50 at human JAK1 was > 1000 nM; on human JAK3 it was < 100 nM; with BaF3 wild-type cells, < 20000 nM; in the experiment on CTLL2, < 5000 nM. The inhibition at 0.5 µM on BTK(h) and on KDR(h) was 100% throughout.
`C=CC(=O)Nc1ccc(Sc2ccnc(Nc3cccc(N4CCOCC4)c3)n2)cc1` [Compound 77, N-(4-(2-(3-morpholinophenylao)pyrimidin-4-ylthio)phenyl)acrylamide]: the IC50 at human JAK1 was > 1000 nM; at human JAK3, < 100 nM; in the experiment on BaF3 wild-type cells, < 5000 nM; in the experiment on CTLL2, < 1000 nM. Further, the inhibition at 0.5 µM at BTK(h) and on KDR(h) was 100% throughout.
On to `C=CC(=O)Nc1cccc(Sc2ccnc(Nc3cccc(N4CCOCC4)c3)n2)c1` [Compound 110, N-(3-(2-(3-morpholinophenylao)pyrimidin-4-ylthio)phenyl)acrylamide], for which the IC50 is > 1000 nM on human JAK1, < 100 nM at human JAK3, < 20000 nM in the experiment on BaF3 wild-type cells and < 5000 nM in the experiment with CTLL2. In addition, the inhibition at 0.5 µM on BTK(h) and on KDR(h) was 100% each time.
As to `C=CC(=O)NCc1ccc(Sc2ccnc(Nc3ccc(N4CCOCC4)cc3)n2)cc1` [Compound 111, N-(4-(2-(4-morpholinophenylamino)pyrimidin-4-ylthio)benzyl)acrylamide], the IC50 on human JAK1 is > 1000 nM; at human JAK3, < 100 nM; in the experiment on BaF3 wild-type cells, < 20000 nM; with CTLL2, < 5000 nM. The inhibition at 0.5 µM on BTK(h) and on KDR(h) was 100% in each case.
Turning to `C=CC(=O)NCc1cccc(Sc2ccnc(Nc3ccc(N4CCOCC4)cc3)n2)c1` [Compound 112, N-(3-(2-(4-morpholinophenylamino)pyrimidin-4-ylthio)benzyl)acrylamide], the IC50 at human JAK1 is > 1000 nM; at human JAK3, < 100 nM; in the experiment with BaF3 wild-type cells it was > 20000 nM; in the experiment on CTLL2 it was < 20000 nM. The inhibition at 0.5 µM at BTK(h) and at KDR(h) was 100% in each case.
Regarding `C=CC(=O)Nc1ccc(Sc2ccnc(Nc3ccc(N4CCOCC4)cc3)n2)cc1OC` [Compound 123, N-(2-methoxy-4-(2-(4-morpholinophenylao)pyrimidin-4-ylthio)phenyl)acrylamide], the IC50 on human JAK1 is > 1000 nM; at human JAK3, < 100 nM; in the experiment with BaF3 wild-type cells, < 5000 nM; with CTLL2, < 20000 nM. The inhibition at 0.5 µM on BTK(h) and on KDR(h) was 100% throughout.
With `Cc1cc(N)ccc1Sc1nc(Nc2ccc(N3CCOCC3)cc2)ncc1C` [Compound 162, 4-(4-ao-2-methylphenylthio)-5-methyl-N-(4-morpholinophenyl)pyrimidin-2-ae], the IC50 on human JAK1 was < 500 nM; on human JAK3, < 100 nM; in the experiment with BaF3 wild-type cells, < 20000 nM; in the experiment on CTLL2 it was < 5000 nM. Further, the inhibition at 0.5 µM worked out at 82% on Flt 1(h), 98% on Flt 4(h) and 95% on KDR(h).
Turning to `C=CC(=O)Nc1ccc(Sc2nc(Nc3ccc(N4CCOCC4)cc3)ncc2C)c(C)c1` [Compound 163, N-(3-methyl-4-(5-methyl-2-(4-morpholinophenylao)pyrimidin-4-ylthio)phenyl)acrylamide], the IC50 on human JAK1 is > 1000 nM; on human JAK3, < 100 nM; with BaF3 wild-type cells, > 20000 nM; in the experiment with CTLL2, < 1000 nM. For the same compound, the inhibition at 0.5 µM on Flt 1(h) was 83%; on Flt 4(h) it was 99%; on KDR(h), 97%.
Turning to `Cc1cnc(Nc2ccc(N3CCOCC3)cc2)nc1Sc1c(C)cc(N)cc1C` [Compound 165, 4-(4-ao-2,6-dimethylphenylthio)-5-methyl-N-(4-morpholinophenyl)pyrimidin-2-ae], the IC50 at human JAK1 was > 1000 nM; at human JAK3, < 500 nM; in the experiment on BaF3 wild-type cells, > 20000 nM; in the experiment on CTLL2 it was > 20000 nM. Besides, the results for the inhibition at 0.5 µM at Flt 1(h), on Flt 4(h) and on KDR(h) were 43%, 99% and 86%, respectively.
For `N#Cc1ncn(Cc2ccc(Sc3ccnc(Nc4ccc(N5CCOCC5)cc4)n3)cc2)c1C#N` [Compound 201, 1-(4-(2-(4-morpholinophenylao)pyrimidin-4-ylthio)benzyl)-1H-imidazole-4,5-dicarbonitrile], the IC50 is > 1000 nM at human JAK1, < 100 nM on human JAK3, < 5000 nM in the experiment on BaF3 wild-type cells and < 5000 nM with CTLL2. Further, the inhibition at 0.5 µM at BTK(h) and at KDR(h) was 100% throughout.
As for `CC#CC(=O)Nc1ccc(Sc2ccnc(Nc3cccc(N4CCOCC4)c3)n2)cc1` [Compound 233, N-(4-(2-(3-morpholinophenylao)pyrimidin-4-ylthio)phenyl)but-2-ynamide], the IC50 was < 100 nM at human JAK3, < 5000 nM in the experiment with BaF3 wild-type cells and < 5000 nM in the experiment on CTLL2. For the same compound, the inhibition at 0.5 µM at Flt 1(h) was 99%; on Flt 4(h) it was 99%; on KDR(h), 98%.
Consider `C=CC(=O)Nc1ccc(Sc2nc(Nc3cccc(OC)c3)ncc2C)cc1` [Compound 235, N-(4-(2-(3-methoxyphenylao)-5-methylpyrimidin-4-ylthio)phenyl)acrylamide], for which the IC50 at human JAK3 is < 100 nM. Besides, the inhibition at 0.5 µM turned out to be 86% at Flt 1(h), 99% on Flt 4(h) and 96% on KDR(h).
With `C=CC(=O)Nc1ccc(Sc2nc(Nc3cccc(N4CCOCC4)c3)ncc2C)cc1` [Compound 237, N-(4-(5-methyl-2-(3-morpholinophenylao)pyrimidin-4-ylthio)phenyl)acrylamide], the IC50 was < 100 nM at human JAK3, < 1000 nM in the experiment on BaF3 wild-type cells and < 1000 nM with CTLL2. For the same compound, the inhibition at 0.5 µM on Flt 1(h) amounted to 98%; on Flt 4(h), 99%; at KDR(h), 97%.
With `C=CC(=O)Nc1ccc(Sc2ccnc(Nc3ccc(N4CCN(C)CC4)cc3)n2)cc1` [Compound 238, N-(4-(2-(4-(4-methylpiperazin-1-yl)phenylao)pyrimidin-4-ylthio)phenyl)acrylamide], the IC50 at human JAK3 is < 100 nM. Besides, the inhibition at 0.5 µM is 97% on Flt 1(h), 99% on Flt 4(h) and 95% at KDR(h).
On to `CCOC(=O)/C=C/C(=O)Nc1ccc(Sc2nc(Nc3ccc(N4CCOCC4)cc3)ncc2C)cc1` [Compound 385, (E)-ethyl 4-(4-(5-methyl-2-(4-morpholinophenylao)pyrimidin-4-ylthio)phenylao)-4-oxobut-2-enoate], for which the IC50 on human JAK1 was > 1000 nM; on human JAK3 it was < 100 nM; in the experiment on BaF3 wild-type cells, > 20000 nM; in the experiment on CTLL2, < 5000 nM.
On the same counts, the results for `CNC(=O)/C=C\C(=O)Nc1ccc(Sc2nc(Nc3ccc(N4CCOCC4)cc3)ncc2C)cc1` [Compound 389, N1-methyl-N4-(4-(5-methyl-2-(4-morpholinophenylao)pyrimidin-4-ylthio)phenyl)maleamide] are > 1000 nM, < 100 nM, < 20000 nM and < 1000 nM.

These data come from patent publication US8846704B2, “Thiopyrimidine-based compounds and uses thereof” (YM Biosciences Austraila Pty Ltd, priority 2007, dated 2014).
